# Tested on: Staphylococcus aureus
# Test: Antibacterial activity against Staphylococcus aureus ATCC 6538 assessed as inhibition of bacterial growth incubated for 24 hrs by CLSI based microdilution method
# Type: functional
row,MIC99.9 [mg/L],SMILES
1,>100,C/C(=C\CCC1=C2[C@H](C[C@@]3(C)[C@H]2C[C@@H](O)[C@H]2[C@@]4(C)CC[C@@H](O)[C@@H](CO)[C@@H]4CC[C@@]23C)OC1=O)C(=O)O
2,2.5,CC(=O)O[C@H]1C[C@@]2(C)[C@@H](C[C@@H](O)[C@H]3[C@@]4(C)CC[C@@H](O)[C@@H](C)[C@@H]4CC[C@@]32C)/C1=C(\CC/C=C(\C)CO)C(=O)O
3,>100,C/C(=C\CCC1=C2[C@H](C[C@@]3(C)[C@H]2C[C@@H](O)[C@H]2[C@@]4(C)CC[C@@H](O)[C@@H](C)[C@@H]4CC[C@@]23C)OC1=O)CO
4,0.078,CC(=O)O[C@H]1C[C@@]2(C)[C@@H](CC(=O)[C@H]3[C@@]4(C)CC[C@@H](O)[C@@H](C)[C@@H]4CC[C@@]32C)/C1=C(\CCC=C(C)C)C(=O)O
5,>100,C/C(=C\CCC1=C2[C@H](C[C@@]3(C)[C@H]2C[C@@H](O)[C@H]2[C@@]4(C)CC[C@@H](O)[C@@H](C)[C@@H]4CC[C@@]23CO)OC1=O)C(=O)O
6,>100,C/C(=C\CCC1=C2[C@H](C[C@@]3(C)[C@H]2C[C@@H](O)[C@H]2[C@@]4(C)CC[C@@H](O)[C@@H](C)[C@@H]4C[C@@H](O)[C@@]23C)OC1=O)C(=O)O

# From ChEMBL document CHEMBL4831550, “Fusidane-Type Antibiotics from the Marine-Derived Fungus Simplicillium sp. SCSIO 41513” (2021)
